Experimental findings from US5948784A, “Quinazoline derivatives” (Kyowa Hakko Kogyo Co., Ltd., priority 1994, dated 1999) are described below.

Data set [1] addresses T1, [^3 H]-Nitrobenzylthioinosine (NBI) binding, cerebral cortex homogenate (Cavia porcellus, UniProt H0V4R7).
T1 construct: The cerebral cortex of a male guinea pig of Hartley strain was homogenized; from tissue; host or cells: cerebral cortex of male Hartley guinea pig (washed membrane precipitate)
T1 sequence (H0V4R7 1-461): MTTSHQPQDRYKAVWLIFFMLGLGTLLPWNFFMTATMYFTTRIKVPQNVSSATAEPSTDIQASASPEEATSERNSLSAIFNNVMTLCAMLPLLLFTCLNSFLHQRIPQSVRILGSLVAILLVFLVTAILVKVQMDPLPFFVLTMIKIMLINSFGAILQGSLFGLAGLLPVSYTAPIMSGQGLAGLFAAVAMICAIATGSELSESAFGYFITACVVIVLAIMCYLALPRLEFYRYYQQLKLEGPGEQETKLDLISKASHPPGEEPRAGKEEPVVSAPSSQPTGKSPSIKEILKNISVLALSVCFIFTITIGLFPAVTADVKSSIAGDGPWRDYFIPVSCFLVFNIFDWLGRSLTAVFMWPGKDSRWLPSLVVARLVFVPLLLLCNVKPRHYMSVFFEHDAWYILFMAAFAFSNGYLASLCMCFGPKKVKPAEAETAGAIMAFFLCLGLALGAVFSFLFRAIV
Briefly: Inhibitory Effect on [^3 H]-Nitrobenzylthioinosine (NBI) Binding. Also on record: species or system guinea pig (male, Hartley strain). To be noted: guinea pig cerebral cortex, 1.5 nM [^3 H]-NBI, 25° C., 30 minutes, Cheng-Prusoff. The procedure: The cerebral cortex of a male guinea pig of Hartley strain was homogenized with an ice-cooled 50 mM tris-HCl buffer (pH 7.4) in an amount of 25 times (w/v) that of the tissue. The homogenate was centrifuged (30,000×g, 4° C., 20 mins.), and the supernatant was discarded. To the precipitate was added the same amount of the buffer, followed by homogenization and then centrifugation in the same manner as above. The obtained precipitate was suspended in 20 times as much buffer as the precipitate to prepare a suspension for testing. To a DMSO solution of a test compound were added 1.5 nM of [^3 H]-NBI and 5 mg (wet basis) of the tissue homogenate, and the mixture was allowed to stand at 25° C. for 30 minutes. To the mixture was added 4 ml of an ice-cooled buffer, followed by rapid filtration with suction through a glass filter (GF/C, produced by Whatman Ltd.) or a Ready filter (produced by Beckman Co.) to stop the reaction. The filter was transferred to a scintillation vial, and after drying, Scintisol EX-H was added thereto. The radioactivity was measured with a liquid scintillation counter. The binding inhibitory activity was expressed in terms of an inhibition constant (Ki value) as calculated according to Cheng-Prusoff's formula.

Data set [2] deals with [^3 H]-adenosine uptake in erythrocytes. Briefly: Inhibitory Effect on [^3 H]-Adenosine Uptake (washed erythrocytes). The data set is classed as cell-based, human (healthy male adult). To be noted: Homo sapiens; erythrocyte suspension, 1 hour preincubation at room temperature, 10 seconds uptake; read-out: [^3 H]-Adenosine Uptake Inhibition IC50. How it is done:
A blood sample was obtained from a healthy adult under 40 years of age by brachial venipuncture using a syringe containing sodium citrate and subjected to centrifugation to obtain washed erythrocytes. […] Ten seconds later, 200 μl of a dilazep solution (1 mg/ml) was added to stop the reaction. […] The supernatant was removed and the erythrocyte fraction was separated. […] The concentration of the test compound which inhibits the [^3 H]-adenosineuptake by 50% (IC50) was calculated.

The test system of data set [3] is Diabetic Nephropathy (STZ) in ddY-strain male mice. Briefly: Effect on Increase of Albumin Excretion in Diabetic Nephropathy. The format is in vivo, mouse. The following applies: for Urinary Albumin Content: mean, standard error, control 333 ± 30, normal 80 ± 3. The procedure: In this test, ddY-strain male mice weighing 25-28 g were used. Diabetes was induced according to the method of Tsuchida, et al. [Jin To Toseki (Kidney and Dialysis), 31, 363-366 (1991)]. That is, streptozotocin (5 mg/ml, Sigma; hereinafter referred to as STZ) dissolved in 0.05 M citrate buffer was intravenously injected into mice through the tail vein at a dose of 10 ml/kg. On the fourth day after the STZ administration, 30 μl of blood was collected from the tail vein of the mice and the blood glucose was determined using Glutestsensor (Sanwa Kagaku). The animals were divided into three groups based on the blood glucose level. Twelve weeks after the STZ administration, each mouse was put into a metabolic cage and received oral administration of 0.5 ml/10 g of distilled water twice at an interval of 12 hours. Urine was collected for 24 hours, and after measurement of the volume, the urine was centrifuged under cooling (3000 rpm, 4° C. ) for 5 minutes. The supernatant was analyzed for albumin using an autoanalyzer (Olympus). A test compound was orally administered once a day for 11 weeks, starting on the fifth day after the STZ administration. The normal group and the control group received oral administration of a solvent (5% methyl cellulose solution). The results are shown in Table 8 as the means standard error of each group. Statistical significance was evaluated by Aspin-Welch's test for the difference between the control group and the normal group and by Steel's test for the difference between the control group and the test compound-administered group.

Data set [4] relates to Masugi Nephritis in ddY-strain male mice. Briefly: Effect on Increase of Albumin Excretion in Masugi Nephritis. The data set is classed as in vivo, mouse. How it is done:
Mouse nephrotoxin (hereinafter referred to as NT) was prepared according to the method of Ito, et al. [The Japanese Journal of Nephrology, 23, 25-36 (1981)]. That is, glomerular basement membrane (hereinafter referred to as GBM) was isolated from mouse kidney and digested with trypsin (Sigma). The digested GBM was subjected to ultracentrifugation under cooling, and the supernatant was dialyzed against distilled water, followed by lyophilization. The lyophile product was intracutaneously injected as an antigen into four foot pads of a rabbit together with Freund's complete adjuvant (Iatron; hereinafter referred to as FCA) once a week for 4 weeks for immunization. The whole blood was drawn from the immunized rabbit, and serum was separated and inactivated at 56° C. for 30 minutes to prepare NT.
In this test, ddY-strain male mice weighing 29-36 g were used. For previous immunization, 0.25 ml of an FCA emulsion containing 0.25 mg of rabbit immunoglobulin-globulin (IgG, Sigma) was intraperitoneally injected into mice. Nephritis was induced by intravenous injection of 0.075 ml of NT through the tail vein 4 and 11 days after the previous immunization. […] The supernatant was analyzed for albumin using an autoanalyzer (Olympus). […]
The results are shown in Table 7 as the means±standard error of each group consisting of 11 mice. Statistical significance was evaluated by Student's t-test.

The test system of the next data set is dd-strain male mice. Briefly: Acute Toxicity Test. The data set is classed as in vivo. To be noted: mortality seven days after administration. The procedure:
A test compound was orally or intraperitoneally administered to groups of dd-strain male mice weighing 20±1 g, each group consisting of three mice. […] The MLD was >1000 mg/kg for oral administration of Compound 10 and was >100 mg/kg for intraperitoneal administration of Compound 10.

On to `COc1cc2nc(N(CCO)CCO)nc(N3CCC(n4c(=O)c5cc(C)ccc5n(C)c4=O)CC3)c2cc1OC` [Compound 6, 3-{1-[2-Bis(2-hydroxyethyl)amino-6,7-dimethoxy-4-quinazolinyl]-4-piperidinyl}-1,2,3,4-tetrahydro-1,6-dimethyl-2,4-dioxoquinazoline], for which, in data set [1], the Ki (as a rule, the equilibrium dissociation constant of an inhibitor or competing ligand from its target) worked out at 0.0015 µM. For the same compound, the IC50 (commonly the point on the concentration scale where inhibition reaches its midpoint) in data set [2] was 0.029 µM.
For `COc1cc2nc(N3CCC(C(=O)O)CC3)nc(N3CCC(n4c(=O)c5cc(C)ccc5n(C)c4=O)CC3)c2cc1OC` [Compound 4, 3-{1-[2-(4-Carboxypiperidino)-6,7-dimethoxy-4-quinazolinyl]-4-piperidinyl}-1,2,3,4-tetrahydro-1,6-dimethyl-2,4-dioxoquinazoline], the IC50 in data set [2] worked out at 0.072 µM.
`CCCNc1nc(N2CCC(n3c(=O)c4cc(C)ccc4n(C)c3=O)CC2)c2cc(OC)c(OC)cc2n1` [Compound 8, 3-[1-(6,7-Dimethoxy-2-propylamino-4-quinazolinyl)-4-piperidinyl]-1,2,3,4-tetrahydro-1,6-dimethyl-2,4-dioxoquinazoline] showed an inhibitory constant (Ki) in data set [1] of 0.0014 µM. The IC50 in data set [2] was 0.05 µM.
As to `CCOc1cc2nc(N3CCOCC3)nc(N3CCC(n4c(=O)c5cc(C)ccc5n(C)c4=O)CC3)c2cc1OCC.Cl` [Compound 10, 3-[1-(6,7-Diethoxy-2-morpholino-4-quinazolinyl)-4-piperidinyl]-1,2,3,4-tetrahydro-1,6-dimethyl-2,4-dioxoquinazoline hydrochloride], the “Urinary Albumin Content” value in data set [3] (1 mg/kg oral once a day for 11 weeks, 10 animals, * less than 5% vs control) came out at 244 ± 16 mg/kg/24 hr; in data set [3] (10 mg/kg oral once a day for 11 weeks, 9 animals, ** less than 1% vs control) it was 200 ± 13 mg/kg/24 hr; in data set [4] (1 mg/kg oral once a day, mean ± standard error, 11 mice, control 134 ± 9, normal 85 ± 5, marked **), 96 ± 7 mg/kg/24 hr. Also, the “effect on increase of urinary albumin in diabetic nephropathy (in words)” value in data set [3] (STZ diabetic nephropathy, mice) is given as “inhibits the increase of urinary albumin in diabetic nephropathy”. Besides, the “effect on increase of urinary albumin in nephritis (in words)” value in data set [4] (Masugi nephritis, mice) is “inhibits the increase of urinary albumin in nephritis”. For the same compound, in the data set with dd-strain male mice (intraperitoneal), the “minimum lethal dose (MLD), intraperitoneal” value was more than 100 mg/kg. For the same compound, the “minimum lethal dose (MLD), oral” value with dd-strain male mice (oral) was more than 1000 mg/kg. This compound gave an inhibition constant Ki in data set [1] of 0.002 µM. Moreover, the half-inhibitory concentration (IC50) in data set [2] was determined as 0.097 µM.
Regarding `COc1cc2nc(N3CCN(C)CC3)nc(N3CCC(n4c(=O)c5cc(C)ccc5n(C)c4=O)CC3)c2cc1OC` [Compound 2, 3-{1-[6,7-Dimethoxy-2-(4-methyl-1-piperazinyl)-4-quinazolinyl]-4-piperidinyl}-1,2,3,4-tetrahydro-1,6-dimethyl-2,4-dioxoquinazoline], the IC50 in data set [2] was 0.064 µM.
For `CCOC(=O)C1CCN(c2nc(N3CCC(n4c(=O)c5cc(C)ccc5n(C)c4=O)CC3)c3cc(OC)c(OC)cc3n2)CC1` [Compound 3, 3-{1-[2-(4-Ethoxycarbonylpiperidino)-6,7-dimethoxy-4-quinazolinyl]-4-piperidinyl}-1,2,3,4-tetrahydro-1,6-dimethyl-2,4-dioxoquinazoline], the Ki in data set [1] amounted to 0.0076 µM.
On to `COc1cc2nc(N(C)CCN(C)C)nc(N3CCC(n4c(=O)c5cc(C)ccc5n(C)c4=O)CC3)c2cc1OC` [Compound 7, 3-{1-{2-[N-(2-Dimethylaminoethyl)-N-methylamino]-6,7-dimethoxy-4-quinazolinyl}-4-piperidinyl}-1,2,3,4-tetrahydro-1,6-dimethyl-2,4-dioxoquinazoline], for which, in data set [1], affinity was put at a Ki of 0.0038 µM. Moreover, the IC50 in data set [2] worked out at 0.062 µM.
In the case of `COc1cc2nc(N3CCOCC3)nc(N3CCC(n4c(=O)c5cc(C)ccc5n(C)c4=O)CC3)c2cc1OC` [Compound 1, 3-[1-(6,7-Dimethoxy-2-morpholino-4-quinazolinyl)-4-piperidinyl]-1,2,3,4-tetrahydro-1,6-dimethyl-2,4-dioxoquinazoline], in data set [1], affinity was put at a Ki of 0.002 µM. The IC50 in data set [2] stood at 0.035 µM.
`COc1cc2nc(N(C)C)nc(N3CCC(n4c(=O)c5cc(C)ccc5n(C)c4=O)CC3)c2cc1OC` [Compound 5, 3-[1-(2-Dimethylamino-6,7-dimethoxy-4-quinazolinyl)-4-piperidinyl]-1,2,3,4-tetrahydro-1,6-dimethyl-2,4-dioxoquinazoline] showed a Ki in data set [1] of 0.0026 µM.
